Experimental data taken from patent publication US20250230193A1, “CYCLIC COMPOUND HAVING SELECTIVE KRAS INHIBITORY EFFECT ON HRAS AND NRAS” (CHUGAI SEIYAKU KABUSHIKI KAISHA, priority 2022, published 2025).

Legend:
[1] = molecular target: GDP-bound NRAS wild-type protein (Homo sapiens, UniProt P01111); assay: Binding to NRAS by surface plasmon resonance (SPR), Single Cycle Kinetics; conditions: KD ratio NRAS/KRAS, class symbols
[2] = molecular target: GDP-bound HRAS wild-type protein (Homo sapiens, UniProt P01112); assay: Binding to HRAS by surface plasmon resonance (SPR), Single Cycle Kinetics; conditions: KD ratio HRAS/KRAS, class symbols
Sequence of GDP-bound HRAS wild-type protein (P01112 whole entry): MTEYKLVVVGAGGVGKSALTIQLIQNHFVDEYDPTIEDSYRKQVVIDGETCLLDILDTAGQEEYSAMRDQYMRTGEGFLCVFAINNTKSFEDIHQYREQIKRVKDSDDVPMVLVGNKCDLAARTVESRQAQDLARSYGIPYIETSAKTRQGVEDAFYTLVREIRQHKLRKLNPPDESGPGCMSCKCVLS

Sequence of GDP-bound NRAS wild-type protein (P01111 whole entry): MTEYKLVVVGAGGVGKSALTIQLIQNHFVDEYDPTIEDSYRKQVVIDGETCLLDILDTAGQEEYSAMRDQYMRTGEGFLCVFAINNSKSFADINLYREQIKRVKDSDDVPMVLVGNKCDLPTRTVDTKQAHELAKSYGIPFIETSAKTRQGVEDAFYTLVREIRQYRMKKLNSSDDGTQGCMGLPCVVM

| SMILES | NRAS/KRAS (ratio of KD value with respect to GDP-bound NRAS wild-type protein to KD value with respect to KRAS) [1] | HRAS/KRAS (ratio of KD value with respect to GDP-bound HRAS wild-type protein to KD value with respect to KRAS) [2] |
| --- | --- | --- |
| CCO[C@@H]1C[C@H]2C(=O)NC3(CC(C)(C)C3)C(=O)N(C)[C@@H](C3CCCC3)C(=O)N(C)[C@H](C(=O)N(C)CC)CC(=O)N(C)[C@@H](CC)C(=O)N[C@@H]([C@@H](C)CC)C(=O)N(C)CC(=O)N(C)[C@H]3C/C=C\CCN(C3=O)[C@@H](Cc3ccc(C(F)(F)F)cc3)C(=O)N(C)CC(=O)N[C@@H](CCc3ccc(C(F)(F)F)c(Cl)c3)C(=O)N2C1 [PP2823] | A (a compound having 10 or more and less than 20 is denoted as A) | A (a compound having 10 or more and less than 20 is denoted as A) |
| CCO[C@@H]1C[C@H]2C(=O)NC3(CCC3)C(=O)N(C)[C@@H](C3CCCC3)C(=O)N(C)[C@H](C(=O)N(C)CC)CC(=O)N(C)[C@@H](CC3CCC3)C(=O)N[C@@H]([C@@H](C)CC)C(=O)N(C)CC(=O)N(C)[C@H]3C/C=C\CCN(C3=O)[C@@H](Cc3ccc(C(F)(F)F)cc3)C(=O)N(C)CC(=O)N[C@@H](CCc3ccc(Cl)c(Cl)c3)C(=O)N2C1 [PP2824] | A (a compound having 10 or more and less than 20 is denoted as A) | A (a compound having 10 or more and less than 20 is denoted as A) |
| CCO[C@@H]1C[C@H]2C(=O)NC3(CCC3)C(=O)N(C)[C@@H](C3CCCC3)C(=O)N(C)[C@H](C(=O)N(C)CC)CC(=O)N(C)[C@@H](CC3CCC3)C(=O)N[C@@H]([C@@H](C)CC)C(=O)N(C)CC(=O)N(C)[C@H]3C/C=C\CCN(C3=O)[C@@H](Cc3ccc(C(F)(F)F)cc3)C(=O)N(C)CC(=O)N[C@@H](CCc3ccc(C(F)(F)F)c(OC)c3)C(=O)N2C1 [PP2825] | A (a compound having 10 or more and less than 20 is denoted as A) | B (a compound having 3 or more and less than 10 is denoted as B) |
| CCO[C@@H]1C[C@H]2C(=O)NC3(CCC3)C(=O)N(C)[C@@H](C3CCCC3)C(=O)N(C)[C@H](C(=O)N(C)CC)CC(=O)N(C)[C@@H](CC3CCC3)C(=O)N[C@@H]([C@@H](C)CC)C(=O)N(C)CC(=O)N(C)[C@H]3C/C=C\CCN(C3=O)[C@@H](Cc3ccc(C(F)(F)F)cc3)C(=O)N(C)CC(=O)N[C@@H](CCc3ccc(C(F)(F)F)c(Cl)c3)C(=O)N2C1 [PP2826] | A (a compound having 10 or more and less than 20 is denoted as A) | A (a compound having 10 or more and less than 20 is denoted as A) |
| CCO[C@@H]1C[C@H]2C(=O)NC3(CC(C)(C)C3)C(=O)N(C)[C@@H](C3CCCC3)C(=O)N(C)[C@H](C(=O)N(C)CC)CC(=O)N(C)[C@@H](CC(C)C)C(=O)N[C@@H]([C@@H](C)CC)C(=O)N(C)CC(=O)N(C)[C@H]3C/C=C\CCN(C3=O)[C@@H](Cc3ccc(C(F)F)cc3)C(=O)N(C)CC(=O)N[C@@H](CCc3ccc(Cl)c(Cl)c3)C(=O)N2C1 [PP2827] | A (a compound having 10 or more and less than 20 is denoted as A) | B (a compound having 3 or more and less than 10 is denoted as B) |
| CCO[C@@H]1C[C@H]2C(=O)NC3(CC(C)(C)C3)C(=O)N(C)[C@@H](C3CCCC3)C(=O)N(C)[C@H](C(=O)N(C)CC)CC(=O)N(C)[C@@H](CC(C)C)C(=O)N[C@@H]([C@@H](C)CC)C(=O)N(C)CC(=O)N(C)[C@H]3C/C=C\CCN(C3=O)[C@@H](Cc3ccc(C(F)F)cc3)C(=O)N(C)CC(=O)N[C@@H](CCc3ccc(C(F)(F)F)c(OC)c3)C(=O)N2C1 [PP2828] | A (a compound having 10 or more and less than 20 is denoted as A) | A (a compound having 10 or more and less than 20 is denoted as A) |
| CCO[C@@H]1C[C@H]2C(=O)NC3(CC(C)(C)C3)C(=O)N(C)[C@@H](C3CCCC3)C(=O)N(C)[C@H](C(=O)N(C)CC)CC(=O)N(C)[C@@H](CC(C)C)C(=O)N[C@@H]([C@@H](C)CC)C(=O)N(C)CC(=O)N(C)[C@H]3C/C=C\CCN(C3=O)[C@@H](Cc3ccc(C(F)F)cc3)C(=O)N(C)CC(=O)N[C@@H](CCc3ccc(C(F)(F)F)c(Cl)c3)C(=O)N2C1 [PP2829] | A (a compound having 10 or more and less than 20 is denoted as A) | A (a compound having 10 or more and less than 20 is denoted as A) |
| CCCOC[C@H]1C(=O)N[C@@H]([C@@H](C)CC)C(=O)N(C)CC(=O)N(C)[C@H]2C/C=C\CCN(C2=O)[C@@H](Cc2ccc(C(F)(F)F)cc2)C(=O)N(C)CC(=O)N[C@@H](CCc2ccc(Cl)c(Cl)c2)C(=O)N2C[C@H](OCC)C[C@H]2C(=O)NC2(CCC2)C(=O)N(C)[C@@H](C2CCCC2)C(=O)N(C)[C@H](C(=O)N(C)CCC)CC(=O)N1C [PP2830] | A (a compound having 10 or more and less than 20 is denoted as A) | A (a compound having 10 or more and less than 20 is denoted as A) |
| CCCOC[C@H]1C(=O)N[C@@H]([C@@H](C)CC)C(=O)N(C)CC(=O)N(C)[C@H]2C/C=C\CCN(C2=O)[C@@H](Cc2ccc(C(F)(F)F)cc2)C(=O)N(C)CC(=O)N[C@@H](CCc2ccc(C(F)(F)F)c(Cl)c2)C(=O)N2C[C@H](OCC)C[C@H]2C(=O)NC2(CCC2)C(=O)N(C)[C@@H](C2CCCC2)C(=O)N(C)[C@H](C(=O)N(C)CCC)CC(=O)N1C [PP2831] | A (a compound having 10 or more and less than 20 is denoted as A) | A (a compound having 10 or more and less than 20 is denoted as A) |
| CCO[C@@H]1C[C@H]2C(=O)NC3(CC(C)(C)C3)C(=O)N(C)[C@@H](C3CCCC3)C(=O)N(C)[C@H](C(=O)N(C)C)CC(=O)N(C)[C@@H](CC(F)(F)F)C(=O)N[C@@H]([C@@H](C)CC)C(=O)N(C)CC(=O)N(C)[C@H]3C/C=C\CCN(C3=O)[C@@H](Cc3ccc(C(F)(F)F)cc3)C(=O)N(C)CC(=O)N[C@@H](CCc3ccc(Cl)c(Cl)c3)C(=O)N2C1 [PP2832] | A (a compound having 10 or more and less than 20 is denoted as A) | A (a compound having 10 or more and less than 20 is denoted as A) |
| CCO[C@@H]1C[C@H]2C(=O)NC3(CC(C)(C)C3)C(=O)N(C)[C@@H](C3CCCC3)C(=O)N(C)[C@H](C(=O)N(C)C)CC(=O)N(C)[C@@H](CC(F)(F)F)C(=O)N[C@@H]([C@@H](C)CC)C(=O)N(C)CC(=O)N(C)[C@H]3C/C=C\CCN(C3=O)[C@@H](Cc3ccc(C(F)(F)F)cc3)C(=O)N(C)CC(=O)N[C@@H](CCc3ccc(C(F)(F)F)c(Cl)c3)C(=O)N2C1 [PP2833] | A (a compound having 10 or more and less than 20 is denoted as A) | A (a compound having 10 or more and less than 20 is denoted as A) |
| CCO[C@@H]1C[C@H]2C(=O)NC3(CC(C)(C)C3)C(=O)N(C)[C@@H](C3CCCC3)C(=O)N(C)[C@H](C(=O)N(C)CC)CC(=O)N(C)[C@@H](COC)C(=O)N[C@@H]([C@@H](C)CC)C(=O)N(C)CC(=O)N(C)[C@H]3C/C=C\CCN(C3=O)[C@@H](Cc3ccc(C(F)(F)F)cc3)C(=O)N(C)CC(=O)N[C@@H](CCc3ccc(Cl)c(Cl)c3)C(=O)N2C1 [PP2835] | A (a compound having 10 or more and less than 20 is denoted as A) | A (a compound having 10 or more and less than 20 is denoted as A) |
| CCO[C@@H]1C[C@H]2C(=O)NC3(CC(C)(C)C3)C(=O)N(C)[C@@H](C3CCCC3)C(=O)N(C)[C@H](C(=O)N(C)CC)CC(=O)N(C)[C@@H](COC)C(=O)N[C@@H]([C@@H](C)CC)C(=O)N(C)CC(=O)N(C)[C@H]3C/C=C\CCN(C3=O)[C@@H](Cc3ccc(C(F)(F)F)cc3)C(=O)N(C)CC(=O)N[C@@H](CCc3ccc(C(F)(F)F)c(Cl)c3)C(=O)N2C1 [PP2836] | A (a compound having 10 or more and less than 20 is denoted as A) | A (a compound having 10 or more and less than 20 is denoted as A) |
| CCO[C@@H]1C[C@H]2C(=O)NC3(CCCC3)C(=O)N(C)[C@@H](C3CCCC3)C(=O)N(C)[C@H](C(=O)N(C)C)CC(=O)N(C)[C@@H](CC(C)C)C(=O)N[C@@H]([C@@H](C)CC)C(=O)N(C)CC(=O)N(C)[C@H]3C/C=C\CCN(C3=O)[C@@H](Cc3ccc(C(F)(F)F)cc3)C(=O)N(C)CC(=O)N[C@@H](CCc3ccc(Cl)c(Cl)c3)C(=O)N2C1 [PP2837] | AA (a compound having 20 or more is denoted as AA) | A (a compound having 10 or more and less than 20 is denoted as A) |
| CCO[C@@H]1C[C@H]2C(=O)NC3(CCCC3)C(=O)N(C)[C@@H](C3CCCC3)C(=O)N(C)[C@H](C(=O)N(C)C)CC(=O)N(C)[C@@H](CC(C)C)C(=O)N[C@@H]([C@@H](C)CC)C(=O)N(C)CC(=O)N(C)[C@H]3C/C=C\CCN(C3=O)[C@@H](Cc3ccc(C(F)(F)F)cc3)C(=O)N(C)CC(=O)N[C@@H](CCc3ccc(C(F)(F)F)c(Cl)c3)C(=O)N2C1 [PP2838] | AA (a compound having 20 or more is denoted as AA) | A (a compound having 10 or more and less than 20 is denoted as A) |
